Patent publication US20260055365A1, “METHOD FOR SELECTIVE DIFFERENTIATION FROM PLURIPOTENT STEM CELLS TO HINDBRAIN TISSUE” (NEXT&BIO INC., priority 2022, published 2026)

System: embryoid bodies formed from pluripotent stem cells
Assay: Selective differentiation of embryoid bodies into hindbrain tissue (region-specific gene expression)
Format: cell-based
Conditions: cultured 7 days
Method: When the density of pluripotent stem cells reached approximately 80%, residues on the cell surface were washed using D-PBS and separated into each cell. Furthermore, the cells were diluted to contain approximately 100,000 cells per 10 ml of the embryoid body formation medium, and approximately 100 μl of the medium containing the cells was injected into each well of an Ultra-Low-attachment U bottom 96 well plate (Corning, 7007). Then, the cells were added in an incubator under a CO2 atmosphere at 37° C. and cultured for about 24 hours to form embryoid bodies. After the embryoid bodies were formed as described above, after about one day, it was confirmed whether one spherical embryoid body with a clean surface was formed well in each well. A hindbrain tissue induction medium containing IWP-2 as an endogenous WNT secretion inhibitor at a concentration of 1 μM and CHIR99021 as a WNT signaling agonist at concentrations of 1 μM, 2 μM, 3 μM, and 5 μM was prepared, and then about 100 μl of the hindbrain tissue induction medium was added to each well containing the embryoid body. About 100 μl of the existing medium was removed once every two days, about 100 μl of the hindbrain tissue induction medium was added, and the embryoid bodies were cultured for 7 days to confirm whether selective differentiation of the embryoid bodies into hindbrain tissue was performed well.

Cc1c[nH]c(-c2cnc(NCCNc3ccc(C#N)cn3)nc2-c2ccc(Cl)cc2Cl)n1 [CHIR99021]
expression intensities of hindbrain region-specific genes versus other brain region-specific genes (hindbrain tissue induction medium with CHIR99021 2 μM to 3 μM plus IWP-2 1 μM): much stronger than those of other brain region-specific genes | expression of forebrain region-specific genes versus other brain regions (hindbrain tissue induction medium with CHIR99021 approximately 1 μM plus IWP-2 1 μM): stronger than that of other brain regions | expression of spinal cord region-specific genes versus other brain regions (hindbrain tissue induction medium with CHIR99021 approximately 5 μM plus IWP-2 1 μM): stronger than that of other brain regions | expression of hindbrain region-specific genes (hindbrain tissue induction medium with CHIR99021 more than 1 μM and less than 5 μM plus IWP-2 1 μM, FIGS. 2 to 4): strongly induced
